For one test, the target named is T1, GluClαWT/βWT receptor (Caenorhabditis elegans, UniProt G5EBR3+Q17328).
T1 construct: entry codes of the full-length subunits used in this study; expressed in transfected cells; host or cells: CHO cells, transient co-transfection 1:1, pcDNA3.1
T1 sequence (G5EBR3 21-461): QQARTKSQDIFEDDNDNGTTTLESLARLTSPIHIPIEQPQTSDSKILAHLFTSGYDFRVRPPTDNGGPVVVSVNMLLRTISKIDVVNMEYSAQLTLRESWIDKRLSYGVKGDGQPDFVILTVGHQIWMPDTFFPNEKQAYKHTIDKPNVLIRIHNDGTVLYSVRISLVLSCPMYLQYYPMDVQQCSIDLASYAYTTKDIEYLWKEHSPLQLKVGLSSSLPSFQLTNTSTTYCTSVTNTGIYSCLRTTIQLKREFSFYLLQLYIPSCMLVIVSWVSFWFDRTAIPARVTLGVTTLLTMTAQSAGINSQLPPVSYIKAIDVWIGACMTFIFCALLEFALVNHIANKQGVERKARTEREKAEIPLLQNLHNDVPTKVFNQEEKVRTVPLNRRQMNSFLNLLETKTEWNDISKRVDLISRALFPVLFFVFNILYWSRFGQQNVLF
T1 sequence (Q17328 23-434): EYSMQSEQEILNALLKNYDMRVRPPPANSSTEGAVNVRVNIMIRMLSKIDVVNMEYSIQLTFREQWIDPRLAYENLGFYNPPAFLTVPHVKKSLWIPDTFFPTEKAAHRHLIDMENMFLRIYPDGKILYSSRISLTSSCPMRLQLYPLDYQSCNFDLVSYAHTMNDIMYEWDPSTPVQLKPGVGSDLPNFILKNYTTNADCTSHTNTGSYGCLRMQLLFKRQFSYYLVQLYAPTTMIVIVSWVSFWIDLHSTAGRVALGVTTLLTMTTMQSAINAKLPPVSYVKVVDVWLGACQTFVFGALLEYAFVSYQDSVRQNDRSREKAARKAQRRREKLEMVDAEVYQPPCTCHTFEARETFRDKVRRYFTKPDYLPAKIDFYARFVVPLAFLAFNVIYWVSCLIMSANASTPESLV
Details: method as in Degani-Katzav et al., [2016]. The conditions noted are these: CHO cells co-transfected with WT α and β subunits; ref Degani-Katzav et al., [2016]; cited from earlier work.

For a further test, the target named is T2, GluClαP192Y/βWT receptor (Caenorhabditis elegans, UniProt G5EBR3+Q17328, P192Y).
T2 construct: entry codes of the full-length subunits used in this study; expressed in transfected cells; host or cells: CHO cells, transient co-transfection 1:1, pcDNA3.1
T2 sequence (G5EBR3 21-461 P192Y, one chain of several): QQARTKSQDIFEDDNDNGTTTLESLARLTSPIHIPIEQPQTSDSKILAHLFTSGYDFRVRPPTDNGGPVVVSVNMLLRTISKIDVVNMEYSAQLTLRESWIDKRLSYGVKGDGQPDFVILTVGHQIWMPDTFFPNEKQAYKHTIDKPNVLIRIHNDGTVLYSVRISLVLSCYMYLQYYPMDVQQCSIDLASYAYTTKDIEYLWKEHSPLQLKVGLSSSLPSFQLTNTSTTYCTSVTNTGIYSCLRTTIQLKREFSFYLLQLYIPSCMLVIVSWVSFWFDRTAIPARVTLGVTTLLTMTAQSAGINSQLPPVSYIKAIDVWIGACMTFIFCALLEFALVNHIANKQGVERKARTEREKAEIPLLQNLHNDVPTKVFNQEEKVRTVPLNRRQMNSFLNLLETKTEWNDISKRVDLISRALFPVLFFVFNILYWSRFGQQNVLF
Nature of the test: Whole-cell patch clamp in CHO cells, GluClαP192Y/βWT receptor. The class given is cell-based. The following applies: 500 nM IVM, -60 mV. The protocol: (§1) Chinese hamster ovary (CHO) cells were cultured as previously (Bar-Lev et al., [2011]) in Dulbecco’s Modified Eagle Medium (DMEM) containing 10% fetal calf serum, 2 mM glutamax, 100 Units/ml penicillin G and 100 μg/ml streptomycin, and grown in 5% CO2 at 37°C under 90%–95% humidity. The cells were seeded on glass coverslips (13-mm diameter) placed in a 24-multiwell plate. […] For the expression of GluCl receptors, cells were transiently co-transfected with pcDNA3.1 plasmids containing the ORFs of interest using transit-LT1 transfection reagent (Mirus, Madison, WI, USA), according to the manufacturer’s protocol. The cDNAs encoding the C. elegans GluClα (GLC-1) or its mutated versions and the GluClβ (GLC-2) subunits (200–600 ng per well) were used at 1:1 ratio. The pIRES-CD8 plasmid (200 ng per well) was added to enable the visualization of the expressing cells by beads coated with anti-CD8 antibodies (Invitrogen). […]
(§2) Whole-cell patch clamp recordings were performed as described previously (Bar-Lev et al., [2011]) in CHO cells that were prepared as detailed above. […] The currents were measured with an Axopatch 200B patch-clamp amplifier (Molecular Devices, Sunnyvale, CA, USA) and a Digidata 1440A interface (Molecular Devices). […]

Test [1] addresses T3, GluClα[SSS→GSD]/βWT receptor (Caenorhabditis elegans, UniProt G5EBR3+Q17328, S236G/S238D).
T3 construct: entry codes of the full-length subunits used in this study; expressed in transfected cells; host or cells: CHO cells, transient co-transfection 1:1, pcDNA3.1
In words: Whole-cell patch clamp in CHO cells, GluClα[SSS→GSD]/βWT receptor. It is filed as cell-based. The following applies: 500 nM IVM, -60 mV. The protocol:
as §1, §2

Another test deals with T4, GluClαP192E/βWT receptor (Caenorhabditis elegans, UniProt G5EBR3+Q17328, P192E).
T4 construct: entry codes of the full-length subunits used in this study; expressed in transfected cells; host or cells: CHO cells, transient co-transfection 1:1, pcDNA3.1
T4 sequence (G5EBR3 21-461 P192E, one chain of several): as the sequence (G5EBR3 21-461 P192Y, one chain of several) above, with Y172E counted along it
In words: Whole-cell patch clamp in CHO cells, GluClαP192E/βWT receptor. The following applies: 500 nM IVM, -60 mV. It is filed as cell-based. As to the method:
as §1, §2

T3 sequence (G5EBR3 21-461 S236G/S238D, one chain of several): as the sequence (G5EBR3 21-461 P192Y, one chain of several) above, with Y172P, S216G, S218D counted along it

`CC[C@H](C)[C@H]1O[C@]2(CC[C@@H]1C)C[C@@H]1C[C@@H](C/C=C(\C)[C@@H](O[C@H]3C[C@H](OC)[C@@H](O[C@H]4C[C@H](OC)[C@@H](O)[C@H](C)O4)[C@H](C)O3)[C@@H](C)/C=C/C=C3\CO[C@@H]4[C@H](O)C(C)=C[C@@H](C(=O)O1)[C@]34O)O2` [IVM, ivermectin]: the “response to IVM” value on GluClαWT/βWT receptor is reported as “robust responses”. In addition, the figures for the “IVM (500 nM) Amplitude” value (on GluClαP192Y/βWT receptor; in test [1]; on GluClαP192E/βWT receptor) were 1.2 ± 0.2 nA, 1.8 ± 0.4 nA and 1.7 ± 0.3 nA, respectively.

These data come from paper PMC5382172 (Frontiers in Molecular Neuroscience, 2017).
